Experimental findings from the OPERA property sets (Mansouri et al. 2018) are described below.

Peptide text beside a SMILES is read from it.

For orientation: logP means the decadic logarithm of the partition coefficient of the neutral form, usually between octanol and water. The molecule `CC1NC(=O)C(CC(=O)NC(Cc2c[nH]c3ccccc23)C(=O)NC(Cc2ccccc2)C(=O)N(C)Cc2ccccc2)NC1=O` (stereo not given) yielded a logP of 3.18.

Molecule `OCCc1cccnc1` yielded a lipophilicity (logP) of 0.12.

The molecule `CNC(=O)Oc1cc(C)c(SC)c(C)c1` gave a lipophilicity (logP) of 2.92.

In turn, `O=C(O)c1ccc2c(c1)OCCOCCOCCOCCOCCO2` had a logP of -0.28.

`Nc1ccc(Cl)cc1` had a logP of 1.83.

`NS(=O)(=O)c1ccc(O)cc1`: the lipophilicity (logP) is 0.06.

In the case of `NC(=O)CCCCc1ccncc1`, the logP was found to be 0.42.

The molecule `Clc1ccc2cc[nH]c2c1` registered a logP of 3.25.

Turning to `NNC=O`, the logP was -2.05.

In turn, `CC(=O)NCC(=O)N[C@@H](C)C(=O)N[C@H](C(N)=O)C(C)C` (Ac-Gly-Ala-Val-NH2) displayed a logP of -1.56.

In turn, `CN(C)C(=O)c1ccccc1O` came in with a logP of 0.44.

For `CCC(C)(C)C`, the logP stood at 3.82.

`Oc1ccc(Cl)c(Cl)c1Cl` showed a logP of 3.8.

Regarding `COc1cc(S(C)=O)ccc1-c1nc2nnccc2[nH]1` (stereo not given), the logP is 0.23.

Regarding `C=CCNC(=O)NCC=C`, the logP came out at 0.64.

The molecule `CCOP(=O)(OCC)SCSCC` displayed a logP of 2.07.

As to `CCN(CC)CCNC(=O)c1cc(F)c(N)cc1OC`, the logP is 2.28.

For `CC=Cc1ccccc1`, the lipophilicity (logP) was determined as 3.35.

For the molecule `COP1(=S)OCc2ccccc2O1` (stereo not given), the logP worked out at 2.67.

`CC12CC3CC(C)(C1)CC(N)(C3)C2` displayed a logP of 3.28.

For `CC1(C)S[C@@H]2[C@H](NC(=O)COc3ccccc3)C(=O)N2[C@H]1C(=O)O`, the logP was 2.09.

Regarding `O=[N+]([O-])c1ccncc1`, the logP worked out at 0.33.

As for `O=C(O)Cc1cccc(I)c1`, the logP stood at 2.62.

In the case of `OC1CCCCC1`, the lipophilicity (logP) is 1.23.

`Cc1ccccc1OCC(=O)NNC(C)C` displayed a logP of 1.83.

`COc1ccccc1O` came in with a logP of 1.32.

`CC(=O)N[C@H](C(=O)N[C@@H](C)C(=O)N[C@@H](C)C(N)=O)C(C)C` came in with a logP of -1.4.

In turn, `COc1ccc(O)c2ncccc12` returned a lipophilicity (logP) of 2.06.

`CCN(CC)c1nc(Cl)nc(NC(C)C)n1` registered a logP of 3.94.

Molecule `CN(C)P(=O)(N(C)C)N(C)C` had a logP of 0.28.

Turning to `CCC(C)C(=O)Nc1ccccc1` (stereo not given), the log partition coefficient (logP) came to 2.56.

`C[Si](C)(C)c1ccccc1` gave a logP of 4.72.

With `CC(=O)Nc1ccccc1`, the logP was found to be 1.16.

`CN(C)c1ccc(S(N)(=O)=O)cc1` gave a logP of 0.76.

The molecule `O=NN1CCCC(O)C1` (stereo not given) displayed a logP of -0.47.

Take `Clc1ccc(Cl)c(Cl)c1`: the logP amounted to 4.02.

Take `O=[N+]([O-])c1cccc2cc[nH]c12`: the logP came out at 2.63.

On to `CCOC(=O)CON=Cc1ccc(OCCOC(=O)CC)c(OC)c1`, for which the logP amounted to 2.39.

`CC(=O)c1ccccc1[N+](=O)[O-]` had a lipophilicity (logP) of 1.28.

The molecule `CC(C)C(N)C(=O)O` (stereo not given) yielded a logP of -2.26.

As to `CC1(c2ccccc2)NC(=O)NC1=O` (stereo not given), the logP was 1.02.

On to `CCCNCC(C)C`, for which the lipophilicity (logP) was determined as 2.07.

In turn, `CCC1=Nc2ccc(Cl)cc2S(=O)(=O)N1` gave a logP of 1.62.

The molecule `Cc1ccnc(NS(=O)(=O)c2ccc(N)cc2)n1` returned a logP of 0.14.

As to `CC(=O)Nc1cccc(C)c1`, the logP stood at 1.68.

`C[C@]12CC[C@H](O)CC1=CC[C@@H]1[C@@H]2CC[C@]2(C)C(=O)CC[C@@H]12` returned a lipophilicity (logP) of 3.23.

`CN(C)C(N(C)C)=S(I)c1ccccc1Cl` (stereo not given) gave a logP of -0.19.

As to `CCC(=O)OCC(=O)C1(O)CCC2C3CCC4=CC(=O)CCC4(C)C3C(O)CC21C` (stereo not given), the logP worked out at 2.8.

In turn, `Oc1ccc(Sc2ccc(O)cc2)cc1` came in with a logP of 3.34.

In turn, `NC(=S)N1CCCCC1` had a logP of 0.73.

In turn, `CN1C(=O)CC(=O)NC1=O` gave a logP of -0.85.

`CS/C(C)=N/OC(=O)N(C)SN(C)C(=O)O/N=C(\C)SC` registered a logP of 1.7.

`c1ccc2ncccc2c1` displayed a lipophilicity (logP) of 2.03.

As to `Nc1ccc(C(=O)Oc2ccc(Br)cc2)c(O)c1`, the lipophilicity (logP) amounted to 3.46.

In the case of `O=NN1CC=CC1`, the logP came out at 0.26.

`C#CC(C)OC(=O)Nc1ccc(OCC)c(OCC)c1` (stereo not given) displayed a logP of 2.68.

The molecule `CC(C)(C)C1CCN(N=O)CC1` gave a logP of 2.54.

Take `CN1C(CCl)Nc2cc(Cl)c(S(N)(=O)=O)cc2S1(=O)=O` (stereo not given): the logP came to 1.42.

`CC(C)N` gave a logP of 0.26.

`CC(=O)N[C@@H](CC(C)C)C(=O)N[C@H](C(N)=O)C(C)C` (Ac-Leu-Val-NH2) registered a logP of 0.26.

Regarding `Cc1cccc(S(I)=C(N(C)C)N(C)C)c1` (stereo not given), the logP is -0.14.

In turn, `NNP(=O)(Oc1ccccc1)Oc1ccccc1` returned a log partition coefficient (logP) of 1.51.

The molecule `COC(=O)C=Cc1ccccc1` registered a logP of 2.62.

In the case of `CC12CCC(=O)C=C1CCC1C2C(O)CC2(C)C1CCC2(O)C(=O)COC(=O)CCCCCO` (stereo not given), the logP was determined as 2.79.

As to `Clc1ccc(C(c2ccc(Cl)cc2)C(Cl)(Cl)Cl)cc1`, the logP was determined as 6.91.

With `CCCc1nc2cccc(C)n2c(=O)c1CC`, the logP was found to be 2.37.

`COc1ccccc1[N+](=O)[O-]` came in with a logP of 1.73.

For the molecule `N#Cc1cccc(O)c1`, the logP turned out to be 1.7.

`O=c1ccnc(S)[nH]1` registered a log partition coefficient (logP) of -0.28.

In the case of `CCCc1ccc(S(N)(=O)=O)cc1`, the logP was found to be 1.64.

The molecule `COc1cc(CCN)cc(OC)c1OC(C)C` yielded a log partition coefficient (logP) of 1.52.

`CCC(Br)C(=O)O` (stereo not given) displayed a logP of 1.42.

For the molecule `COc1ccccc1OCC(=O)O`, the log partition coefficient (logP) worked out at 0.98.

For the molecule `O=C1CN=C(c2ccccc2)c2cc([N+](=O)[O-])ccc2N1`, the logP is 2.25.

Regarding `CCCCCCCCNC(=O)c1[nH]nc(C)c1[N+](=O)[O-]`, the logP worked out at 3.48.

For the molecule `CCCCNC(=O)NS(=O)(=O)c1ccc(Cl)cc1`, the logP is 2.81.

Consider `CC(=O)Oc1c[nH]c2ccccc12`, for which the logP worked out at 2.01.

The molecule `CCOc1ccccc1` returned a logP of 2.51.

Molecule `NS(=O)(=O)c1ccc(C(=O)c2ccncc2)cc1` registered a log partition coefficient (logP) of 0.56.

On to `N#CCc1ccc([N+](=O)[O-])cc1`, for which the lipophilicity (logP) is 1.37.

Regarding `O=C1CCC(=O)N1c1ccc(Br)cc1`, the logP is 1.18.

The molecule `Cc1ccnc2c(O)ccc(O)c12` displayed a logP of 1.59.

In turn, `O=C(Nc1ccccc1)c1cccnc1` showed a logP of 1.73.

`CCC(=O)O[C@]1(C(=O)CO)CC[C@H]2[C@@H]3CCC4=CC(=O)CC[C@]4(C)[C@H]3[C@@H](O)C[C@@]21C` registered a logP of 2.7.

The molecule `C=CC1(C)OC(=O)N(c2cc(Cl)cc(Cl)c2)C1=O` (stereo not given) came in with a logP of 3.1.

Turning to `O=C(C(=O)c1ccccc1)c1ccccc1`, the logP turned out to be 3.38.

`CCOC(=O)CCc1ccccc1`: the logP stood at 2.73.

The molecule `CCOc1cccnc1` showed a logP of 1.44.

`O=C(COc1ccccc1)N1CCOCC1`: the logP stood at 0.74.

Molecule `NC(N)=Nc1ccccc1` yielded a logP of 0.53.

In the case of `CC(C)(C)c1ccc([N+](=O)[O-])cc1`, the log partition coefficient (logP) stood at 3.89.

Molecule `CNCc1ccccc1` yielded a lipophilicity (logP) of 1.52.

The molecule `CC(=O)Nc1ncccn1` had a logP of -0.75.

`CCNC(=O)Nc1ccccc1` gave a logP of 1.64.

Turning to `c1cnc2ncncc2n1`, the logP is -0.58.

`O=C(O)COc1ccccc1Br`: the lipophilicity (logP) amounted to 2.04.

The molecule `COc1cc([C@@H]2c3cc4c(cc3C(O[C@@H]3O[C@@H]5COC(c6cccs6)O[C@H]5[C@H](O)[C@H]3O)C3COC(=O)[C@@H]32)OCO4)cc(OC)c1O` (stereo not given in full) returned a lipophilicity (logP) of 1.24.

For the molecule `Cc1ccc([N+](=O)[O-])cn1`, the logP was determined as 0.99.

For the molecule `OCCCCc1ccncc1`, the logP was determined as 0.9.

`NC(=S)c1ccccn1` gave a logP of 1.24.

Turning to `CCC[C@@H]1C[C@@H](C(=O)N[C@@H]([C@H]2O[C@H](SC)[C@H](O)[C@@H](O)[C@H]2O)[C@@H](C)O)N(C)C1`, the logP turned out to be 0.2.

For `CC(=O)C1CCC2C3CCC4=CC(=O)CCC4(C)C3C(O)CC12C` (stereo not given), the logP was 2.36.

In turn, `Cc1cccc(N(C)C)c1` registered a logP of 2.8.

As for `CCNc1nc(NC(C)C)nc(SC)n1`, the logP was 2.98.

For `CC(=O)Oc1ccccc1Cl`, the logP stood at 2.18.

`CCCCC(=O)OC` returned a logP of 1.96.

`O=C(O)CCc1ccccc1` gave a logP of 1.84.

In the case of `O=Cc1ccncc1`, the logP amounted to 0.43.

In the case of `CC(=O)Oc1cccc([N+](=O)[O-])c1`, the logP is 1.82.

Consider `CNC(=O)C1C(C)CC2C3CCC4=CC(=O)C=CC4(C)C3(F)C(O)CC21C` (stereo not given), for which the logP came out at 1.54.

For the molecule `CCc1ccccc1O`, the logP was determined as 2.47.

For the molecule `CCCCNc1ccccc1`, the lipophilicity (logP) turned out to be 3.58.

With `NCCCCc1ccccc1`, the logP worked out at 2.4.

In turn, `O=c1cnn(C2OC(CO)C(O)C2O)c(=O)[nH]1` (stereo not given) showed a logP of -2.14.

The molecule `O=P(Oc1ccccc1)(Oc1ccccc1)Oc1ccccc1` showed a logP of 4.59.

For the molecule `CCCC(C)(C)c1ccc(C2CCCC(O)C2)c(O)c1` (stereo not given), the logP came to 4.82.

In turn, `CCOP(=S)(OCC)SCSC(C)(C)C` came in with a logP of 4.48.

`FC(F)Oc1ccccc1` came in with a logP of 2.44.

Take `OCCO`: the logP was -1.36.

Molecule `CCC(=O)OC1(C(C)=O)C(C)CC2C3CCC4=CC(=O)C=CC4(C)C3(F)C(=O)CC21C` (stereo not given) returned a logP of 3.09.

On to `O=C(O)CC[Se]Cc1ccc([N+](=O)[O-])cc1`, for which the logP worked out at 1.63.

Regarding `CCCCCc1cc(OC)c(CC(C)N)cc1OC` (stereo not given), the logP is 4.43.

`CC(C#N)c1ncc([N+](=O)[O-])[nH]1` (stereo not given) returned a logP of -0.07.

`Cc1ccc(C)o1` registered a logP of 2.24.

For `CC(=O)c1ccc([N+](=O)[O-])cc1`, the logP worked out at 1.53.

In turn, `CCCN(CCC)C1CCOc2ccc(O)cc21` (stereo not given) came in with a logP of 3.17.

On to `CCC1(C2=CCCCC2)C(=O)NC(=O)NC1=O`, for which the logP amounted to 1.77.

`CO[C@H]1[C@@H](O)C[C@H](O[C@H]2[C@@H](O)C[C@H](O[C@H]3[C@@H](O)C[C@H](O[C@H]4CC[C@@]5(C)[C@H](CC[C@@H]6[C@@H]5C[C@@H](O)[C@]5(C)[C@@H](C7=CC(=O)OC7)CC[C@]65O)C4)O[C@@H]3C)O[C@@H]2C)O[C@@H]1C` displayed a logP of 1.8.

Molecule `COc1cnnc2ccccc12` registered a lipophilicity (logP) of 1.41.

Molecule `Clc1cc(Cl)c(Cl)nc1Cl` showed a logP of 3.32.
